Source: article PMC11781366 (Immunity, 2023)
pKd: −log10 of the molar value.

Assays:
D. serrata STING = assay: microscale thermophoresis in lysates of transfected S2 cells; type: biochemical, Drosophila serrata
[1] = molecular target: T1, D. melanogaster STING (dSTING) (Drosophila melanogaster, UniProt A0A0B4LFY9); assay: as above; type: biochemical
T1 sequence (A0A0B4LFY9 1-343): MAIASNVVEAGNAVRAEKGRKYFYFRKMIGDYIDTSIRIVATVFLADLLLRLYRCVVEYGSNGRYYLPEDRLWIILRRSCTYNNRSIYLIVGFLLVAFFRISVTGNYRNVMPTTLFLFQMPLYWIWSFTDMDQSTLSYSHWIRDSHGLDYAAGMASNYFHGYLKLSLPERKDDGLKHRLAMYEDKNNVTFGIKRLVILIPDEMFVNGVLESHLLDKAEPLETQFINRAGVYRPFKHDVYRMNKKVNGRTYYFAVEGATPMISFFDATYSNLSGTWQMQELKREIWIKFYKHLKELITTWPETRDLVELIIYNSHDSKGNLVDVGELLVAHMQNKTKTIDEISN

With `Nc1nc2c(ncn2[C@@H]2O[C@@H]3COP(=O)(O)O[C@@H]4[C@H](O)[C@@H](COP(=O)(O)O[C@H]3[C@H]2O)O[C@H]4n2cnc3c(=O)[nH]c(N)nc32)c(=O)[nH]1` [2′3′-c-di-GMP] the pKd (D. serrata STING) was 4.44 and the pKd [1] was 4.55.
